Test results published in patent US12048682B2, “Combination of micheliolide derivatives or nanoparticles with ionizing radiation and checkpoint inhibitors for cancer therapy” (The University of Chicago, priority 2018, dated 2024).

Columns and labels:
GL261 cells = assay: In vitro cytotoxicity against glioma cells GL261 (MTS assay), with or without X-ray irradiation; assay type: cell-based, mouse
Experimental: GL261 cells were seeded onto 96-well plates at a density of 2000 cells/well and treated with various concentrations of the dimethylamino Michael adduct of MCL (dimethylamino micheliolide, […]) for 24 hours to allow for sufficient cellular uptake and conversion to MCL before irradiation. The cells were irradiated with varying amounts of X-ray irradiation and then incubated for an additional 24 hours. The culture medium was exchanged with fresh medium and further incubated for an additional 48 hours. The cell viability was then detected by (3-(4,5-dimethylthiazol-2-yl)-5-(3-carboxymethoxyphenyl)-2-(4-sulfophenyl)-2H-tetrazolium) (MTS) assay (Promega, Madison, Wisconsin, United States of America).

glioma GL261 tumor model [1] = assay: In vivo antitumor activity, glioma GL261 tumor model on immunocompromised Rag2-/- C57BL/6 mice
Experimental: The combination of […] and irradiation was evaluated on the glioma GL261 tumor model on immunocompromised Rag2^-/- C57BL/6 mice. The mice were orally dosed with 50 mg/kg […] or PBS daily and irradiated with 4 Gy irradiation approximately 4 hrs after dosing, as applicable, for up to 7 days, starting when the tumors reached about […]. A Precision X-ray X-RAD 225 Image Guided Biologic Irradiator (Precision X-Ray Irradiation, North Branford, Connecticut, United States of America) was used for all animal studies. The instrument was set at 225 peak kilovoltage (kVp) and 13 milliampere (mA), with a 0.3 mm flat-board copper (Cu) filter installed before a 15-mm collimator. The irradiation was given in two successive fractions with incident angles of 0° and 180° for each mouse.

glioma GL261 tumor model [2] = assay: In vivo antitumor activity, glioma GL261 tumor model on wildtype C57BL/6 mice (irradiation and PD-L1 antibody combination)
Experimental: The combination of DMAMCL, irradiation, and PD-L1 antibody was evaluated on the glioma GL261 tumor model on wildtype C57BL/6 mice. The treatment began 14 days after the inoculation of 2×10^6 GL261 cells. The mice were orally dosed with 50 mg/kg DMAMCL or PBS daily and irradiated with 2 Gy irradiation approximately 4 hrs after dosing, as applicable, for up to 12 days, starting when the tumors reached ˜150 mm^3-200 mm^3. One group of mice received two doses of 75 μg PD-L1 antibody on days 0 and 4. […] By the cessation of treatment, 3/5 tumors treated with this combination were barely palpable.

## CC1=C2CC[C@@](C)(O)[C@@H]2[C@H]2OC(=O)[C@@H](CN(C)C)[C@@H]2CC1 [DMAMCL, dimethylamino micheliolide]
GL261 cells; 1 μM DMAMCL and X-ray irradiation of 8 Gy
  cytotoxicity (cell viability): significant cytotoxicity
GL261 cells; 10 μM DMAMCL and X-ray irradiation of 8 Gy
  cytotoxicity (cell viability): significant cytotoxicity
GL261 cells; DMAMCL monotherapy, doses up to 10 μM, no irradiation
  toxicity (cell viability): little to no toxicity
Glioma GL261 tumor model [1]; DMAMCL 50 mg/kg oral daily plus 4 Gy irradiation about 4 hrs after dosing, up to 7 days
  tumor growth: successfully controlled tumor growth
Glioma GL261 tumor model [1]; DMAMCL alone, 50 mg/kg oral daily up to 7 days
  tumor growth: initially suppressed tumor growth
Glioma GL261 tumor model [1]; DMAMCL alone, 50 mg/kg oral daily up to 7 days, final tumor size
  tumor size compared to irradiation alone: not significantly different in size
Glioma GL261 tumor model [2]; DMAMCL 50 mg/kg oral daily plus 2 Gy irradiation plus 75 μg PD-L1 antibody on days 0 and 4, wildtype C57BL/6 mice
  tumor growth: controlled and regressed tumor growth immediately after treatment
Glioma GL261 tumor model [2]; DMAMCL 50 mg/kg oral daily plus 2 Gy irradiation, up to 12 days, wildtype C57BL/6 mice
  tumor growth: suppressed tumor growth and ultimately led to tumor regression
Glioma GL261 tumor model [2]; DMAMCL alone, 50 mg/kg oral daily up to 12 days, wildtype C57BL/6 mice
  tumor growth: no effect on tumor growth
Glioma GL261 tumor model [2]; DMAMCL plus 2 Gy irradiation plus PD-L1 antibody, wildtype C57BL/6 mice
  tumors barely palpable by the cessation of treatment: 3/5
